The values below come from patent publication US20250052744A1, “Dyes and Uses Thereof” (The University of Liverpool, priority 2021, published 2025).

The test system of one assay is Escherichia coli. Description: Qualitative dye staining on agarose pads (EVOS M7000). The assay is classed as cell-based. Set-up: key to Relative fluorescent intensity: Very high: If the cells looked twice as big in the fluorescent channel, it was marked as having “very high” relative fluorescent intensity; High: if the cells looked bigger in the fluorescent channel, it was marked as having “high” relative fluorescent intensity; Medium: If the cells looked almost the same size in the fluorescent channel and the bright field, it was marked as having “medium” relative fluorescent intensity; Low: If the cells looked smaller in the fluorescent channel as compared to the brightfield but still the whole cell was visible, it was marked as having “low” relative fluorescent intensity; Negligible: If only a few traces of a cell was visible in the fluorescent channel, it was marked as having “negligible” relative fluorescent intensity. The settings on record: DiSC3(5) 3 μM, SYBR Green I 10×, SYTO 13 3 μM, FM4-64 15 μM.

In the next assay the test system is Klebsiella. The assay is described as above. It counts as cell-based. Details: key to Relative fluorescent intensity: Very high: If the cells looked twice as big in the fluorescent channel, it was marked as having “very high” relative fluorescent intensity; High: if the cells looked bigger in the fluorescent channel, it was marked as having “high” relative fluorescent intensity; Medium: If the cells looked almost the same size in the fluorescent channel and the bright field, it was marked as having “medium” relative fluorescent intensity; Low: If the cells looked smaller in the fluorescent channel as compared to the brightfield but still the whole cell was visible, it was marked as having “low” relative fluorescent intensity; Negligible: If only a few traces of a cell was visible in the fluorescent channel, it was marked as having “negligible” relative fluorescent intensity. The note with it: Table 6 thresholds, DiSC3(5) 3 μM, SYBR Green I 10×, SYTO 13 3 μM, FM4-64 15 μM.

The mark [1] stands for this setting: Table 6 thresholds, Escherichia coli.
Setting [2] is: Table 7 commercial strain E. coli SEC 27.
Setting [3] is: Table 7 commercial strain E. coli SEC 93.
Setting [4] is: Table 8 sample Escherichia coli (051).
Setting [5] is: Table 8 sample Escherichia coli (052).
Setting [6] is: Table 8 sample Escherichia coli (053).

In the case of `CCCN1C(=CC=CC=Cc2sc3ccccc3[n+]2CCC)Sc2ccccc21.[I-]` [DiSC3(5), 3,3′-Dipropylthiadicarbocyanine Iodide], the “Percentage of cells stained” value with Escherichia coli (setting [1]), with Escherichia coli (setting [2]), in the assay on Escherichia coli (setting [3]), in the assay on Escherichia coli (setting [4]), in the assay with Escherichia coli (setting [5]) and in the assay on Escherichia coli (setting [6]) was “Almost all” each time. Also, in the assay on Klebsiella, the “Percentage of cells stained” value was “Few”. Besides, the Relative fluorescent intensity result in the assay with Escherichia coli (setting [1]), in the assay with Escherichia coli (setting [2]), in the assay with Escherichia coli (setting [3]), with Escherichia coli (setting [4]), in the assay with Escherichia coli (setting [5]) and with Escherichia coli (setting [6]) was “Medium” each time. For the same compound, in the assay with Klebsiella, the Relative fluorescent intensity entry is “Low-Medium”.

Regarding `CCN(CC)c1ccc(C=CC=CC=Cc2cc[n+](CCC[N+](CC)(CC)CC)cc2)cc1.[Br-].[Br-]` [FM 4-64, N-(3-Triethylammoniumpropyl)-4-(6-(4-(Diethylamino) Phenyl) Hexatrienyl) Pyridinium Dibromide], the “Percentage of cells stained” value in the assay with Escherichia coli (setting [1]), in the assay on Escherichia coli (setting [2]), in the assay with Escherichia coli (setting [3]), in the assay with Escherichia coli (setting [4]), in the assay with Escherichia coli (setting [5]) and with Escherichia coli (setting [6]) was “Almost all” each time. In addition, the “Percentage of cells stained” value with Klebsiella is “Few”. Further, the Relative fluorescent intensity entry with Escherichia coli (setting [1]), in the assay with Escherichia coli (setting [2]), with Escherichia coli (setting [3]), in the assay on Escherichia coli (setting [4]), in the assay with Escherichia coli (setting [5]) and in the assay with Escherichia coli (setting [6]) was “Medium” each time. In addition, in the assay with Klebsiella, the Relative fluorescent intensity result is reported as “Low”.

As to `CCCN(CCCN(C)C)c1cc(/C=C2/Sc3ccccc3N2C)c2ccccc2[n+]1-c1ccccc1` [SYBR Green I, N′,N′-dimethyl-N-[4-[(E)-(3-methyl-1,3-benzothiazol-2-ylidene)methyl]-1-phenylquinolin-1-ium-2-yl]-N-propylpropane-1,3-diamine], the “Percentage of cells stained” value in the assay on Escherichia coli (setting [1]), in the assay with Escherichia coli (setting [2]), in the assay with Escherichia coli (setting [3]), in the assay on Escherichia coli (setting [4]), in the assay on Escherichia coli (setting [5]) and in the assay with Escherichia coli (setting [6]) was “Almost all” in each case. Also, the “Percentage of cells stained” value with Klebsiella was “Few”. Besides, the Relative fluorescent intensity entry in the assay with Escherichia coli (setting [1]), with Escherichia coli (setting [2]), with Escherichia coli (setting [3]), in the assay with Escherichia coli (setting [4]), in the assay on Escherichia coli (setting [5]) and in the assay on Escherichia coli (setting [6]) was “Medium” throughout. Moreover, the Relative fluorescent intensity entry in the assay with Klebsiella is “Low”.
